Laboratory results from patent US12606554B2, “Compounds and pharmaceutical compositions thereof for the treatment of diseases” (ONCO3R Therapeutics BV, priority 2019, dated 2026).

Key:
SIK2 = biological target: T1, SIK2 (Homo sapiens, UniProt Q9H0K1); assay: ADP-Glo kinase assay, SIK2; type: biochemical; details: AMARA peptide 45 μM, 5 μM ATP, 120 min
T1 construct: purchased ThermoFisher Scientific PV4792
Text: The ADP-Glo™ kinase assay is a luminescent technology assay which measures the ADP formed from a kinase reaction. In this specific study, the kinase reactions consisted of the phosphorylation of the AMARA peptide substrate (SignalChem, Cat #A11-58) by SIK1 (Carma Biosciences, Cat #02-131), SIK2 (ThermoFisher Scientific, Cat #PV4792) or SIK3 (SignalChem, Cat #S12-11G-100). In a second step the kinase reactions are terminated and all the remaining ATP is depleted. In a final step the ADP is converted into ATP and this newly synthesized ATP is measured by using a luciferase/luciferin reaction. The generated light is measured using an Envision plate reader, wherein the luminescent signal obtained positively correlates with the kinase activity.
The test compounds are prepared as a serial dilution of 10 point dose responses with ⅕ dilution steps in 100% DMSO starting from 2 mM highest concentration, diluted 1/20 in water and […] is transferred to the assay plates (PerkinElmer Inc., Cat #6007290).
1% DMSO and 10 μM staurosporine final concentrations are used as negative and positive controls.
2 μL enzyme-substrate mixture is added to the assay plates.
The reaction is started by adding 2 μL diluted ATP on the assay plates. Plates are centrifuged for a few seconds at 1000 rpm and gently shaken for 2 min followed by an incubation at RT for 120 min.
The reactions are stopped and the unconsumed ATP is depleted by adding 5 μL ADP-Glo Reagent (Promega, Cat #V9121B) to the reaction. The plates are centrifuged for a few seconds at 1000 rpm and incubated at RT for […] (ATP depletion).
The ADP is converted to ATP and luciferase and luciferin is introduced to detect ATP by adding 10 μL Kinase Detection Reagent (Promega, Cat #V913B+V914r) to the reaction. The plates are centrifuged for a few seconds at 1000 rpm and incubated at RT for 30 min (ADP detection).
Luminescence is measured on an Envision plate reader (PerkinElmer Inc.).
Raw data are generated following the read-out performed on the TopCount, plotted to generate dose response curves to calculate percentage inhibition (PIN) and average IC50 for each SIK homologue which are reported in the table below.

[1] = test system: LPS-induced TNFα in monocyte-derived macrophages (MdM); assay: MdM assay: LPS-triggered TNFα (ELISA); type: cell-based; details: Homo sapiens, Macrophage, LPS 200 ng/mL, supernatant after 20 h
Experimental: SIK inhibition inhibits TNFα and increases IL-10 release in LPS triggered monocyte-derived macrophages (MdM) and dendritic cells (MdDCs) (Clark et al. 2012; Sundberg et al. 2014; Ozanne et al. 2015). This assay evaluates illustrative compounds of the invention for their inhibition of LPS-induced TNFα and LPS triggered IL-10 secretion in monocyte-derived macrophages.
PBMCs are isolated from human blood samples (buffycoats). The buffy coat is aseptically transferred into a 50 mL Falcon tube, and diluted ½ in PBS. Falcon tubes are filled with 20 mL Lymphoprep™, on top of which 25 mL of the buffy coat is carefully added, tubes are centrifuged for 35 min at 400 g in temperature controlled centrifuge, without brake, at 25° C. PBMCs are aspirated from the white interface layer between sample and Lymphoprep™. PBMCs are washed five times in PBS. Cells are resuspended in RPMI 1640 complete medium supplemented with 10% FBS, 1% P/S, and cell density is determined using a hematologic analyzer (Sysmex XS-500i).
PBMCs are centrifuged at 300×g for 10 min and resuspended at a density of 1.0*10^7 cells/80 μL Miltenyi buffer (PBS, pH 7.4, 1% FBS, 2 mM EDTA).
Starting from this point of the protocol all steps are performed on ice. 20 μL of CD14+ micro-beads are added per 1.0*10^7 cells, the tube is mixed and incubated for 15 min in the fridge at 4° C. Cell suspension volume is adjusted to total volume of 100 mL using Miltenyi buffer, mixed gently and subsequently centrifuged for 10 min at 300×g. Supernatant is discarded and cell pellet is resuspended in 12 mL of Miltenyi buffer.
Four LS columns are placed in the MACS Separator (magnet) from Miltenyi Biotec, and are prewet by rinsing with 3 mL of MACS buffer per column. […]
The columns are removed from the magnets, and 5 mL of Miltenyi buffer are added to the column to flush out the CD14+ fraction by pushing the plunger into the column. […] The obtained cell pellet is resuspended in 10 mL RPMI w/o FBS, and cell density is determined using a hematologic analyser (Sysmex XS-500i). […]

T1 sequence (Q9H0K1 whole entry): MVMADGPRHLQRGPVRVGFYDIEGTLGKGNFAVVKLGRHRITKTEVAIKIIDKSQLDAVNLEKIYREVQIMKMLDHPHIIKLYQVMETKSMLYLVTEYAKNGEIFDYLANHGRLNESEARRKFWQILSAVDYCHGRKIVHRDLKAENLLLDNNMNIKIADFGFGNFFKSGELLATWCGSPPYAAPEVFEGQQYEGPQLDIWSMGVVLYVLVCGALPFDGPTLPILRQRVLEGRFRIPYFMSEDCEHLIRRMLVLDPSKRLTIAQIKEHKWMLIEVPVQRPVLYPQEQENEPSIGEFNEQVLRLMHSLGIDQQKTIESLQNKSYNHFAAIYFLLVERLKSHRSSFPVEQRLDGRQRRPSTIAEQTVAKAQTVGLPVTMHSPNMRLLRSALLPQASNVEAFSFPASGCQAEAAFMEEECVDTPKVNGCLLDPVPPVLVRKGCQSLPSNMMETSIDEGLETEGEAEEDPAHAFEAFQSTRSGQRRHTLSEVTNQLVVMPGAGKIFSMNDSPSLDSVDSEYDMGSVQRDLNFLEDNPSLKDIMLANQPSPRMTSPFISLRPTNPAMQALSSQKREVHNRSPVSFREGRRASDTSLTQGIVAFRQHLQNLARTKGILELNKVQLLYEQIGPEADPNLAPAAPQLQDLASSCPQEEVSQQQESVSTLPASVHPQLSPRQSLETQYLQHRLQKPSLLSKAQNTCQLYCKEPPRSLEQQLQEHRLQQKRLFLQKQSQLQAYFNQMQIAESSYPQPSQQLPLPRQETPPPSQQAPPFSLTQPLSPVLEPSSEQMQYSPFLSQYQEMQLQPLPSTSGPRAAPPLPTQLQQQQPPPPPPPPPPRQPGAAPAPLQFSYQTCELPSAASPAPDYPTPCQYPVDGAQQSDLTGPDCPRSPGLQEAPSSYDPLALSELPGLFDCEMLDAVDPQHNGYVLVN

COc1cc(-c2cnn3cc(OCCN4CCOCC4)ccc23)cc2c1C(=O)N(CC(F)(F)F)CC2 [Cpd 1, 8-methoxy-6-[6-(2-morpholinoethoxy)pyrazolo[1,5-a]pyridin-3-yl]-2-(2,2,2-trifluoroethyl)-3,4-dihydroisoquinolin-1-one]
IC50 (SIK2): 0.01 to 10 nM
EC50 [1]: 100 to 1000 nM

COc1cc(-c2cnn3cc(OC(C)(C)CN4CCOCC4)ccc23)cc(OC(F)F)c1C(=O)N[C@@H]1C[C@@H]1F [Cpd 3, 2-(difluoromethoxy)-4-[6-(1,1-dimethyl-2-morpholino-ethoxy)pyrazolo[1,5-a]pyridin-3-yl]-N-[(1R,2S)-2-fluorocyclopropyl]-6-methoxy-benzamide]
IC50 (SIK2): 100 to 500 nM
EC50 [1]: 100 to 1000 nM

COc1cc(-c2cnn3cc(OC(C)(C)CO)ccc23)cc(OC(F)F)c1C(=O)N[C@@H]1C[C@@H]1F [Cpd 2, 2-(difluoromethoxy)-N-[(1R,2S)-2-fluorocyclopropyl]-4-[6-(2-hydroxy-1,1-dimethyl-ethoxy)pyrazolo[1,5-a]pyridin-3-yl]-6-methoxy-benzamide]
IC50 (SIK2): 100 to 500 nM
EC50 [1]: 100 to 1000 nM
